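Briefly, cells in 96-well plates were exposed to five compound concentrations for 48 h, and endpoints were estimated by linear interpolation. Here, GI50 denotes the concentration required for 50% inhibition of growth. TGI marks complete inhibition of growth.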
Columns and labels:
Test in all cases: NCI tumour cell line growth inhibition, 48 h
BT-549 breast = test system: BT-549 breast
SF-268 CNS = test system: SF-268 CNS
M14 melanoma = test system: M14 melanoma
OVCAR-5 ovarian = test system: OVCAR-5 ovarian
UACC-62 melanoma = test system: UACC-62 melanoma
SK-MEL-2 melanoma = test system: SK-MEL-2 melanoma
ACHN renal = test system: ACHN renal
NCI-H460 lung = test system: NCI-H460 lung
SNB-19 CNS = test system: SNB-19 CNS
OVCAR-3 ovarian = test system: OVCAR-3 ovarian
HS 578T breast = test system: HS 578T breast
CCRF-CEM leukemia = test system: CCRF-CEM leukemia
A498 renal = test system: A498 renal
RXF 393 renal = test system: RXF 393 renal
IGROV1 ovarian = test system: IGROV1 ovarian
SN12C renal = test system: SN12C renal
RPMI-8226 leukemia = test system: RPMI-8226 leukemia
T-47D breast = test system: T-47D breast
OVCAR-8 ovarian = test system: OVCAR-8 ovarian
KM12 colon = test system: KM12 colon
SW-620 colon = test system: SW-620 colon
NCI-H522 lung = test system: NCI-H522 lung
HT29 colon = test system: HT29 colon
HOP-92 NSCLC = test system: HOP-92 NSCLC
SK-MEL-5 melanoma = test system: SK-MEL-5 melanoma
COLO 205 colon = test system: COLO 205 colon
SNB-75 CNS = test system: SNB-75 CNS
TK-10 renal = test system: TK-10 renal
K-562 leukemia = test system: K-562 leukemia

O=C1C2=C(C(=O)c3c(O)ccc(O)c31)N(c1ccc(N3CCOCC3)nc1)Cc1ccccc1O2
GI50 (BT-549 breast): 249 nM
TGI (BT-549 breast): 845 nM
GI50 (SF-268 CNS): 1370 nM
TGI (SF-268 CNS): 4.06 µM
GI50 (M14 melanoma): 276 nM
TGI (M14 melanoma): 894 nM
GI50 (OVCAR-5 ovarian): 777 nM
TGI (OVCAR-5 ovarian): 2300 nM
GI50 (UACC-62 melanoma): 369 nM
TGI (UACC-62 melanoma): 1560 nM
GI50 (SK-MEL-2 melanoma): 1390 nM
TGI (SK-MEL-2 melanoma): 3.75 µM
GI50 (ACHN renal): 53.4 nM
TGI (ACHN renal): 237 nM
GI50 (NCI-H460 lung): 1310 nM
TGI (NCI-H460 lung): 4.06 µM
GI50 (SNB-19 CNS): 1450 nM
TGI (SNB-19 CNS): 3.6 µM
GI50 (OVCAR-3 ovarian): 227 nM
TGI (OVCAR-3 ovarian): 651 nM
GI50 (HS 578T breast): 1520 nM
TGI (HS 578T breast): > 55.4 µM
GI50 (CCRF-CEM leukemia): 77.8 nM
GI50 (A498 renal): 2300 nM
TGI (A498 renal): 4.74 µM
GI50 (RXF 393 renal): 148 nM
TGI (RXF 393 renal): 308 nM
GI50 (IGROV1 ovarian): 277 nM
TGI (IGROV1 ovarian): 1140 nM
GI50 (SN12C renal): 262 nM
TGI (SN12C renal): 848 nM
GI50 (RPMI-8226 leukemia): 265 nM
TGI (RPMI-8226 leukemia): 945 nM
GI50 (T-47D breast): 205 nM
TGI (T-47D breast): 900 nM
GI50 (OVCAR-8 ovarian): 350 nM
TGI (OVCAR-8 ovarian): 12.3 µM
GI50 (KM12 colon): 1550 nM
TGI (KM12 colon): 3.92 µM
GI50 (SW-620 colon): 152 nM
TGI (SW-620 colon): 500 nM
GI50 (NCI-H522 lung): 58.1 nM
TGI (NCI-H522 lung): 194 nM
GI50 (HT29 colon): 294 nM
TGI (HT29 colon): 787 nM
GI50 (HOP-92 NSCLC): 202 nM
TGI (HOP-92 NSCLC): 469 nM
GI50 (SK-MEL-5 melanoma): 1360 nM
TGI (SK-MEL-5 melanoma): 2760 nM
GI50 (COLO 205 colon): 137 nM
TGI (COLO 205 colon): 318 nM
GI50 (SNB-75 CNS): 1240 nM
TGI (SNB-75 CNS): 7.27 µM
GI50 (TK-10 renal): 339 nM
TGI (TK-10 renal): 947 nM
GI50 (K-562 leukemia): 88.9 nM
